Calls of active or inactive are those of the source.
Key:
[1] = test system: HEK293; assay: cells; assay type: functional, cell-based; conditions: Homo sapiens
[2] = test system: HEK293; assay: NOD2 signaling inhibitors in MDP-stimulated cells, cell-based, uHTS, luminescence (AID 2001); assay type: functional; conditions: Homo sapiens
[3] = test system: HEK293; assay: cells; assay type: functional, cell-based; conditions: Homo sapiens; remark: listed apart in the source
[4] = test system: HEK293; assay: NOD1 signaling inhibitors, primary screen, cell-based, luminescence, uHTS (AID 1578); assay type: functional; conditions: Homo sapiens
[5] = target: T1, Zinc finger protein mex-5 (Caenorhabditis elegans, UniProt Q9XUB2); assay: MEX-5/TCR-2 RNA interaction inhibitors, dose response, biochemical, C. elegans, fluorescence polarization (AID 1960)
T1 sequence (Q9XUB2 whole entry): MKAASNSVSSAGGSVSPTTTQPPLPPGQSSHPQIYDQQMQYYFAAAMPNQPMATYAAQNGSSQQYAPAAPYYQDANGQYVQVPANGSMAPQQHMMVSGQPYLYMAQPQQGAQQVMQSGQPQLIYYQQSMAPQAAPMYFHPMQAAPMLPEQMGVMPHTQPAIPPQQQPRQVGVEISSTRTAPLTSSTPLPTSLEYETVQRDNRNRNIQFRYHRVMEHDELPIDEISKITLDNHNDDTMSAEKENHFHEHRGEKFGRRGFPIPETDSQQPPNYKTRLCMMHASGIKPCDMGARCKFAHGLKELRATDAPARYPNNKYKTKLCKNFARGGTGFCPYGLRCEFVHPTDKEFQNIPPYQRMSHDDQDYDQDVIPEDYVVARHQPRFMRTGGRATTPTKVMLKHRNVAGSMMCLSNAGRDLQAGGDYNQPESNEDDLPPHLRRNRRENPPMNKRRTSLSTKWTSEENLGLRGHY

[6] = target: T2, RNA-binding protein pos-1 (Caenorhabditis elegans, UniProt G5EF15); assay: inhibitors of POS-1/mex-3 RNA binding, dose response, biochemical, fluorescence polarization (AID 1964);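 further: purified POS-1 fused to maltose binding protein made in E. coli; potency of compounds blocking POS-1 binding to fluorescent RNA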
T2 sequence (G5EF15 whole entry): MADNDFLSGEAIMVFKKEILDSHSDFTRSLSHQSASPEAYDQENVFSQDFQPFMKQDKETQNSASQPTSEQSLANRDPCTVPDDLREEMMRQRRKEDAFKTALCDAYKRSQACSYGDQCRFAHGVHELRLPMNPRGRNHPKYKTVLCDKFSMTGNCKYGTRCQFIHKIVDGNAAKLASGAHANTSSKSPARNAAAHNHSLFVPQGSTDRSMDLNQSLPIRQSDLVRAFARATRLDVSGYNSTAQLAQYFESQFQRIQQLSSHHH

[7] = target: 72 kDa type IV collagenase (Homo sapiens, UniProt P08253); assay: Dose Response validation of uHTS RPN11 inhibitor hits using a MMP-2 Fluorescence assay.; assay type: functional
Chain of 72 kDa type IV collagenase (P08253 whole entry): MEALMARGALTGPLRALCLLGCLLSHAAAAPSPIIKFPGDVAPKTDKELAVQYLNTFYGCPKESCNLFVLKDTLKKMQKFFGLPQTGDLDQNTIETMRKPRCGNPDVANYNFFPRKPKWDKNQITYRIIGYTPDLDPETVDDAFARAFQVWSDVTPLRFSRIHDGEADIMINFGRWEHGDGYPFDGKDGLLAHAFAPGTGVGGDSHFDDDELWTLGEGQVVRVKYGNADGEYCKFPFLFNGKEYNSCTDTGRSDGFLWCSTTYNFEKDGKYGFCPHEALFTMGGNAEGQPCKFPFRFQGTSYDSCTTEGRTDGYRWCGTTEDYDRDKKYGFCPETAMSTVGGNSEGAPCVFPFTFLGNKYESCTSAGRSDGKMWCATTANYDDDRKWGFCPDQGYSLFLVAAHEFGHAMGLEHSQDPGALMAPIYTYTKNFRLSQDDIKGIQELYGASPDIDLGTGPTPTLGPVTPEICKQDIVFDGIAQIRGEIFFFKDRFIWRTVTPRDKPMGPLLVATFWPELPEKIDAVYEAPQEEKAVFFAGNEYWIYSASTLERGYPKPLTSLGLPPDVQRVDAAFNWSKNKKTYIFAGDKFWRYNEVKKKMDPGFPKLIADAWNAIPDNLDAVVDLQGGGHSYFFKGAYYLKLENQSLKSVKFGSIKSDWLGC

[8] = target: 26S proteasome non-ATPase regulatory subunit 14 (Homo sapiens, UniProt O00487); assay: inhibition of proteasome subunit RPN11 – biochemical, fluorescence polarization, uHTS hits, confirmation (AID 602368); assay type: functional
Chain of 26S proteasome non-ATPase regulatory subunit 14 (O00487 whole entry): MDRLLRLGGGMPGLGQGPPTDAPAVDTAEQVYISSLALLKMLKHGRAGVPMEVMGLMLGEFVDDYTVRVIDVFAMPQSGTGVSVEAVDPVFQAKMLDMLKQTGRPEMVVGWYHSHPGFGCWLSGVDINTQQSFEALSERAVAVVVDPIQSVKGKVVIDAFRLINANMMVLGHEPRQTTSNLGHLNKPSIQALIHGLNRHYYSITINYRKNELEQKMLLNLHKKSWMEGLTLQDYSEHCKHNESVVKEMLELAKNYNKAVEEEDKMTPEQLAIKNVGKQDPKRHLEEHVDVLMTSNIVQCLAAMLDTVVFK

[9] = target: Prothrombin (Bos taurus, UniProt P00735); assay: thrombin inhibition, dose response, biochemical, fluorescence polarization, uHTS hits (AID 602369); assay type: functional
[10] = test system: Escherichia coli; assay: microbe, parasite or virus in culture
[11] = Luminescence Cell-Based Dose Response HTS to Identify Inhibitors of 5'UTR Stem-Loop Driven Prion Protein mRNA Translation in H4 Neuroglioblastoma Cells. [Related pubchem assays: 1827 (Project Summary), 1813 (Primary HTS)]; assay type: functional
[12] = inhibitors of SNCA 5'UTR-driven reporter translation, confirmation, H4 neuroglioma cells, luminescence (AID 1988); assay type: functional, cell-based
[13] = test system: INS1; assay: beta cell apoptosis inhibitors, cytokine rescue, dose response, luminescence, retest (AID 449756); assay type: functional, cell-based; conditions: Rattus norvegicus;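 further: cell death triggered by IL-1 beta plus TNF-alpha plus IFN-gamma mixture; protective hits raise ATP signal compared with cytokine alone wells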
[14] = inhibitors of firefly luciferase expression or activity, dose response, H4 neuroglioma cells, luminescence (AID 1990); assay type: functional, cell-based
[15] = target: T3, Heat shock factor protein 1 (Mus musculus, UniProt P38532); assay: HSF1 potentiators in luciferase reporter cells, confirmation, cell-based, NIH3T3, luminescence, dose retest (AID 435004); assay type: functional;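 further: stress induced by proteasome inhibitor MG132 added 30 min after compound; luciferase reporter driven by HSF1 response element in NIH3T3 cells; actives raise luminescence as potentiators of the MG132 stress response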
T3 sequence (P38532 whole entry): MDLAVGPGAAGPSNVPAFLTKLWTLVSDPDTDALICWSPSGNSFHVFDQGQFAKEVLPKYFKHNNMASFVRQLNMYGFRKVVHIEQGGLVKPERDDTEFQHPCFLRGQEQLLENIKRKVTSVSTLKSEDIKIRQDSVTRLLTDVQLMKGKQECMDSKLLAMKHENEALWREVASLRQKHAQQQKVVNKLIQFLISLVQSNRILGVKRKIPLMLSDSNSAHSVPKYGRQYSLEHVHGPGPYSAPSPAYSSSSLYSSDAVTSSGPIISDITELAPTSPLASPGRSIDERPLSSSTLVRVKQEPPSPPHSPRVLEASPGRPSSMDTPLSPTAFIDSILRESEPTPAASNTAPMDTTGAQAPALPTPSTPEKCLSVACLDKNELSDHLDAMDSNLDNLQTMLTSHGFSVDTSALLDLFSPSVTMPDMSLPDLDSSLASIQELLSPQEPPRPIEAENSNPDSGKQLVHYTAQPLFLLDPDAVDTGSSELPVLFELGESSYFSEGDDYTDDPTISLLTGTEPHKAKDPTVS

[16] = cytotoxicity in HEK-293T cells, dose response, cytotoxicity control for TCR NF-kB inhibitor project, luminescence, T-cell screen hits (AID 489026); assay type: functional, cell-based;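 further: cells exposed to compound about 14 hours before the viability readout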
[17] = Luminescence Cell-Based Dose Confirmation HTS to Identify Activators of 5'UTR Stem-Loop Driven Alpha-Synuclein mRNA Translation in H4 Neuroglioblastoma Cells. [Related pubchem assays: 1829 (Project Summary), 1814 (Primary HTS)]; assay type: functional
[18] = test system: H4; assay: Luminescence Cell-Based Dose Response HTS to Identify Activators of 5'UTR Stem-Loop Driven Prion Protein mRNA Translation in H4 Neuroglioblastoma Cells. [Related pubchem assays: 1829 (Project Summary), 1814 (Primary HTS)]; assay type: functional; conditions: Homo sapiens
[19] = Luminescence Cell-Based Dose Response HTS to Identify Activators of Luciferase Translation or Activity in H4 […] Cells. [Related pubchem assays: 1829 (Project Summary), 1814 (Primary HTS)]; assay type: functional
[20] = test system: HEK293; assay: SAR Analysis of small molecule inhibitors of T-cell specific antigen receptor-induced NF-kB activation in a HEK-293T cell line using a luminescence assay - Set 2. [Related pubchem assays (depositor defined):AID435003, AID435012, AID489026]; assay type: functional, cell-based; conditions: Homo sapiens
[21] = test system: Jurkat; assay: SAR Analysis of small molecule inhibitors of T-cell specific antigen receptor-induced NF-kB activation in a Jurkat cell line using a luminescence assay - Set 2. [Related pubchem assays (depositor defined):AID435003, AID435012, AID465]; assay type: functional, cell-based; conditions: Homo sapiens
[22] = test system: HEK293; assay: cytotoxicity in HEK293T NF-kB-Luc cells, SAR follow-up, cytotoxicity control for NF-kB activator project, cell-based, resazurin fluorescence (AID 493251); assay type: functional; conditions: Homo sapiens
[23] = target: DNA (cytosine-5)-methyltransferase 1 (Homo sapiens, UniProt P26358); assay: DNMT1 methyltransferase inhibitors, confirmation, biochemical, fluorescent molecular beacon (AID 602386); assay type: functional
Chain of DNA (cytosine-5)-methyltransferase 1 (P26358 whole entry): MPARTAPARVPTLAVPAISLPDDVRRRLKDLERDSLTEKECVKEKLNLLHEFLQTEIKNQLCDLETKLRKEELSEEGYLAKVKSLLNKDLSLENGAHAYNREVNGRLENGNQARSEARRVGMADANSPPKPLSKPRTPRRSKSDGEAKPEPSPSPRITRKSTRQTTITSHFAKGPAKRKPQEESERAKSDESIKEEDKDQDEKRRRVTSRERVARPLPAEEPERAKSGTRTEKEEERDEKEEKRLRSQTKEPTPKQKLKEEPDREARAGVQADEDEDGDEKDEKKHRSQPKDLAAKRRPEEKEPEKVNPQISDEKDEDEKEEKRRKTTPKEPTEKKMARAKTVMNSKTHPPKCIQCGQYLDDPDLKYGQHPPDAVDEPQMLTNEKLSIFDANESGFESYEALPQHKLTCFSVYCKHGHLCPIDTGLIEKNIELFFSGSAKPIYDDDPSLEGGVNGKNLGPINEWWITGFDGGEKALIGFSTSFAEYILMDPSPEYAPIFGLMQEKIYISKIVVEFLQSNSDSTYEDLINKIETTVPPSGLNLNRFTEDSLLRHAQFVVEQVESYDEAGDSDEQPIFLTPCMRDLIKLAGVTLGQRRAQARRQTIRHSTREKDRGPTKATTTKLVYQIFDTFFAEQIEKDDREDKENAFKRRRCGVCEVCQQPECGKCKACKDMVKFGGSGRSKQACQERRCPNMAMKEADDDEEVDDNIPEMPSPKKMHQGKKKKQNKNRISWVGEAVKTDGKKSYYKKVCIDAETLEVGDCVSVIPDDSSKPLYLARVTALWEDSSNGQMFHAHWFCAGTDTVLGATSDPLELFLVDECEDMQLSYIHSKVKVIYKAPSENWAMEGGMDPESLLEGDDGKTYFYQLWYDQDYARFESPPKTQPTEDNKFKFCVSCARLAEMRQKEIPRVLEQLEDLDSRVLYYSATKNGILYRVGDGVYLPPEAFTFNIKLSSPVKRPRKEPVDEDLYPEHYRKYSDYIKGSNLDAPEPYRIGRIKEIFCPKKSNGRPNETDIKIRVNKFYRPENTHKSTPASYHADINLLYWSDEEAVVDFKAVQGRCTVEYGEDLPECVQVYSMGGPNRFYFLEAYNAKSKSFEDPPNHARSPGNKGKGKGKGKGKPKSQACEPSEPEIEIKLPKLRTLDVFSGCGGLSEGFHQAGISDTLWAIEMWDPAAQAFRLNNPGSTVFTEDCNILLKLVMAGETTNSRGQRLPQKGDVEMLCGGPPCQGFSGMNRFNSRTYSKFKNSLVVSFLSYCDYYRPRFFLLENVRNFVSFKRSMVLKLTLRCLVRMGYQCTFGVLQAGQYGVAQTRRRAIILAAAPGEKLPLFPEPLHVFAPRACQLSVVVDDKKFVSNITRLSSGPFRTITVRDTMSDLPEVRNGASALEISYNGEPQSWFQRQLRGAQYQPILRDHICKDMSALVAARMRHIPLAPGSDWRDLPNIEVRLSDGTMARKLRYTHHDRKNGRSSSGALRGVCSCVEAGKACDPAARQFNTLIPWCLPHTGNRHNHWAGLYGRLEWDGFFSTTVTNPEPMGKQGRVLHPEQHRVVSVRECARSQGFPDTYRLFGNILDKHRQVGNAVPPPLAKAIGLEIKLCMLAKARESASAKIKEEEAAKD

[24] = target: T4, Histone-lysine N-methyltransferase NSD2 (Homo sapiens, UniProt O96028); assay type: biochemical
T4 sequence (O96028 whole entry): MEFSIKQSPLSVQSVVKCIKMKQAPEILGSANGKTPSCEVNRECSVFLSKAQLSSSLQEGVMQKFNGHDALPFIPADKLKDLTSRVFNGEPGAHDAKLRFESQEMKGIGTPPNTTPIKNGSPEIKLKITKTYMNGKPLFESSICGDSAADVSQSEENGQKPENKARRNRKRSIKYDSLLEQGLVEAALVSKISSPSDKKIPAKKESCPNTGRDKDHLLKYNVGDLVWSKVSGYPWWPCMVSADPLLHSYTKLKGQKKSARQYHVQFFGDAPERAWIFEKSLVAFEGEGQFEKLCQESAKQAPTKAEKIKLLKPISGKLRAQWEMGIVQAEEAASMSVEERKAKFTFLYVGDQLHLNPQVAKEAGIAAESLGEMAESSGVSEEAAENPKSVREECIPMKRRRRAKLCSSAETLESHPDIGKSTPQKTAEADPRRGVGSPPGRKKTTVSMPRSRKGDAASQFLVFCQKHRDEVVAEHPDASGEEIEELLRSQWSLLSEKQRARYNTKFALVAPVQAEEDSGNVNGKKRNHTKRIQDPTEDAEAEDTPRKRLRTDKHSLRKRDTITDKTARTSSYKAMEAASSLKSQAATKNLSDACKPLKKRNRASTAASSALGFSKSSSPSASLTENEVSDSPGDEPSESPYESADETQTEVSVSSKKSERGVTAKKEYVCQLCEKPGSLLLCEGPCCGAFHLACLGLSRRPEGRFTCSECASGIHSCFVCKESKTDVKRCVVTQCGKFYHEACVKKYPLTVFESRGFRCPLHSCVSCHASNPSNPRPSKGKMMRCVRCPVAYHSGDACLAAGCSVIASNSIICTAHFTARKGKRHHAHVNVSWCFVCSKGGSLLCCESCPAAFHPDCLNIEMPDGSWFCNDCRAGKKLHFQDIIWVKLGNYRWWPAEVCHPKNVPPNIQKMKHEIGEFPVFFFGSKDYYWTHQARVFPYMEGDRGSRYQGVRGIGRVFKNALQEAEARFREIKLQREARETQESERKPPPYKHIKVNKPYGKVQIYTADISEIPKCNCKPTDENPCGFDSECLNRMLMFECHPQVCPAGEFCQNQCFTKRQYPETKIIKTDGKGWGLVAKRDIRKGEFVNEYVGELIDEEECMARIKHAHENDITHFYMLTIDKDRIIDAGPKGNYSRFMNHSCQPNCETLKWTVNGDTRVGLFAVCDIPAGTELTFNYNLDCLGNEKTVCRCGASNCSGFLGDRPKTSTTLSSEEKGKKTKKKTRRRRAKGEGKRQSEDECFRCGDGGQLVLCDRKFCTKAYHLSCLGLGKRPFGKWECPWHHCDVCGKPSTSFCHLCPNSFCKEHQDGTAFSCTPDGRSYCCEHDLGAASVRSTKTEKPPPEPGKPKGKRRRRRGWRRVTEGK

[25] = target: FAD-linked sulfhydryl oxidase ALR (Homo sapiens, UniProt P55789); assay: inhibitors of human ALR sulfhydryl oxidase, dose response, biochemical, H2O2 detection, luminescence, cherry-pick (AID 493248)
Chain of FAD-linked sulfhydryl oxidase ALR (P55789 whole entry): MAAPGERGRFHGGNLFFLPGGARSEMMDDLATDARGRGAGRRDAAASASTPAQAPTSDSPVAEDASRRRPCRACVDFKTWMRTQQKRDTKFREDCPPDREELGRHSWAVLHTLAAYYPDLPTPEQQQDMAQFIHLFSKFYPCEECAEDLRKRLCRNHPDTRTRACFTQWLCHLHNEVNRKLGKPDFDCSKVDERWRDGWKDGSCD

[26] = cytotoxicity toward NIH3T3 fibroblasts, dose response, counter-screen, cell-based, ATP luminescence, mouse fibroblasts (AID 2010); assay type: functional;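 further: cells exposed to compound for about 90 hours before reading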
[27] = inhibitors of intracellular T. cruzi replication, confirmation, NIH3T3 host cells, beta-gal luminescence (AID 2044); assay type: functional, cell-based;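 further: intracellular parasites grown in NIH/3T3 mouse fibroblasts as host cells; luminescent beta-galactosidase reporter signal from transgenic T. cruzi replicating inside host cells; inhibitors lower the luminescence signal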
[28] = cells

CCc1cc(C(=O)NC2CCCN(Cc3ccccc3F)C2)n(C)n1 (stereo unspecified)
IC50 [1]: > 20 µM (inactive)
IC50 [2]: > 20 µM (inactive)
IC50 [3]: 16.5 µM (active)
EC50 [4]: 9.78 µM (active)

Cc1cc(C)c2c(=O)[nH]c(=O)n(Cc3ccccc3)c2n1
EC50 [5]: > 300 µM (not active)
EC50 [6]: > 300 µM (not active)
IC50 [7]: > 100 µM (inactive)
IC50 [8]: 38.4 µM (active)
IC50 [9]: 46.6 µM (active)

CC(C)(C)OC(=O)NCC(=O)N1CCC(C(=O)O)CC1
AC50 [10]: 26.6 µM (active)

COc1cc(/C=C2/C(=N)N3C(=NC2=O)SN=C3S(C)(=O)=O)ccc1OC(=O)c1ccco1
IC50 [7]: 94.8 µM (active)
IC50 [8]: 31.9 µM (active)
IC50 [9]: 34.4 µM (active)

O=[N+]([O-])c1ccc(-c2nc(C(Cl)Cl)c3ccccc3n2)cc1
EC50 [11]: 0.407 µM (active)
EC50 [12]: 0.336 µM (active)
AC50 [13]: 1.89 µM (active)
EC50 [14]: 1.79 µM (active)
EC50 [15]: > 260 µM (inconclusive)
IC50 [16]: > 80 µM (inactive)

CC1Cc2cc(C(=O)C3=C(O)C(=O)N(Cc4ccco4)C3c3cccs3)ccc2O1 (stereo unspecified)
EC50 [17]: 11.9 µM (active)
EC50 [18]: 35.2 µM (active)
AC50 [10]: 18.3 µM (active)
EC50 [19]: 8.54 µM (active)

COc1ccc(C2SCCN2S(=O)(=O)c2ccccc2)cc1 (stereo unspecified)
AC50 [10]: 95.3 µM (active)

COc1ccc(/C=C2\Oc3cc(OCC(=O)N4CCC[C@H]4C(=O)O)ccc3C2=O)c(OC)c1
IC50 [7]: > 100 µM (inactive)
IC50 [8]: 11 µM (active)
IC50 [9]: 14.3 µM (active)

CCOc1ccc(C(=O)Nc2ccc(NC(=O)c3cc4ccccc4o3)cc2)cc1[N+](=O)[O-]
IC50 [20]: > 80 µM (inactive)
IC50 [21]: 48.8 µM (inactive)
IC50 [22]: > 80 µM (inactive)

COc1ccc(C(=O)Nc2ccc(NC(=O)c3cc4ccccc4o3)cc2)cc1OC
IC50 [20]: > 80 µM (inactive)
IC50 [21]: > 79 µM (inactive)
IC50 [22]: > 80 µM (inactive)

Cc1cc(-c2nc3ncccc3o2)ccc1NC(=O)c1ccc([N+](=O)[O-])o1
IC50 [20]: 30 µM (inactive)
IC50 [21]: 19.4 µM (active)
IC50 [22]: 32 µM (inactive)

ClN=C1C=CC=CC1=NCl
IC50 [23]: 7.2 µM (active)
AC50 [24]: 4.62 µM (active)

Cc1ccc2c(c1)N(C)/C(=C/c1cccc[n+]1C)S2
IC50 [1]: > 20 µM (inactive)
AC50 [25]: 63.1 µM (active)
EC50 [26]: > 60 µM (not active)
IC50 [2]: 17 µM (inactive)
EC50 [27]: < 0.1 µM (active)
EC50 [28]: 0.015 µM (active)
IC50 [3]: 10.6 µM (active)
EC50 [4]: 13.3 µM (active)
